Experimental findings from patent publication US11364244B2, “Compositions for treatment of muscular disorders” (ONCOCROSS CO., LTD., priority 2018, dated 2022) are described below.

Data set [1] deals with Mesenchymal stem cells. The experiment in a line: Differentiation markers PAX7/MYF5 (Western blot) in stem cells isolated from cobratoxin-injured muscle. In kind it is cell-based, mouse. Particulars: OC-501 10 μM, OC-504 5 μM, individually or in combination; 4 days after the application.
Method: Mesenchymal stem cells were isolated on day 3 after cobratoxin was inserted into the tibialis anterior muscle of the mouse. […] West blot analysis was performed using differentiation markers PAX7 (paired box protein-7) and MYF5 (Myogenic factor 5) antibodies. After the differentiation, cells were identified using a microscope (4× and 10× magnification).
For data set [2], the system named is mice transplanted with colorectal cancer cells CT26. Put plainly: Cancer-associated muscle and fat reduction (CT26 transplant + 5-FU, MRI). It counts as in vivo, mouse. To be noted: for fat mass / muscle mass: CT26 + 5-FU mice, treated alone or in combination, MRI every week. How it is done: Cancer-associated sarcopenia was induced by administering 5-FU (5-fluorouracil) as an anticancer agent to mice transplanted with colorectal cancer cells CT26. […] MRI was measured every week to determine muscle and fat changes in OC-501 and 504 alone and combination-treated groups (FIG. 19).

In data set [3] the test system is tibialis anterior muscle of the mouse. Put plainly: Early recovery of muscle fibers after cardiotoxin injury. Particulars: alone 30 mpk, combination each 15 or 30 mpk, 3 days after cardiotoxin. In kind it is in vivo.
Data set [4] has as its system Mouse myoblast strain C2C12. Put plainly: Myoblast proliferation (MTT, OD 595 nm) under H2O2. Particulars: single component 250 nM-20 μM, 400 nM H2O2, 16 hours. It counts as cell-based.
Method: Mouse myoblast strain C2C12 was dispensed in 96-well plates at 1.5×10^3 cells/well, and then cultured in DMEM medium containing 10% fetal bovine serum (FBS) at 37° C. and 5% CO2 for one day at a low density manner. […] At 16 hours since the replacement, the wells were treated with MTT reagent and then the mouse myoblast strain C2C12 was incubated in the DMEM medium in a dark incubator for 3 hours. After removing supernatant therefrom and applying 100 μl of DMSO to the well, the optical density (OD) was measured at 595 nm. Cells were identified using a microscope.
In data set [5] the test system is Mouse myoblast strain C2C12. The experiment in a line: Myoblast differentiation (microscope; Western blot of myogenin and MHC). Particulars: for differentiation of myoblast (microscope): single component 500 nM up to 10 or 20 μM, 400 μM H2O2, 2% horse serum, 5 to 7 days. In kind it is cell-based. The protocol: Mouse myoblast strain C2C12 was dispensed into 12-well plates at 0.7×10^5 cells/well and then cultured to a cell density of 70 to 80%. […] Differentiation of the myoblast was induced for 5 to 7 days while the replacement of the medium occurred every other day. After the differentiation, cells were identified using a microscope (4× and 10× magnification), and cells were disrupted and then Western blot analysis was performed using differentiation markers myogenin and myosin heavy chain (MHC) antibodies.
(§1) Mouse myoblast strain C2C12 was dispensed into 12-well plates at 0.7×10^5 cells/well and then cultured to a cell density of 70 to 80%. The cells were then washed with PBS and then the medium was replaced with DMEM medium (differentiation medium) containing 2% horse serum, 400 μM H2O2, and harmol (OC-503) of 0 nM (DMSO), 500 nM, 1 μM, 2.5 μM, 5 μM, or 10 μM respectively. Differentiation of the myoblast was induced for 5 to 7 days while the replacement of the medium occurred every other day. After the differentiation, cells were identified using a microscope, and cells were disrupted, and then Western blot analysis was performed using differentiation markers myogenin and myosin heavy chain (MHC) antibodies.
as §1, with “H2O2, and calcium pantothenate (OC-504) of 0” for “H2O2, and harmol (OC-503) of 0”, “500 nM, 2.5 μM,” for “500 nM, 1 μM, 2.5 μM,”, “5 μM, 10 μM or 20” for “5 μM, or 10”, “μM or 20 μM respectively.” for “μM, or 10 μM respectively.”, “using a microscope (4× and 10× magnification), and cells” for “using a microscope, and cells”
Mouse myoblast strain C2C12 was dispensed into 12-well plates at 0.7×10^5 cells/well and then cultured to a cell density of 70 to 80%. […] Differentiation of the myoblast was induced for 5 to 7 days while the replacement of the medium occurred every other day. After the differentiation, cells were identified using a microscope (4× and 10× magnification), and cells were disrupted, and then Western blot analysis was performed using differentiation markers myogenin and myosin heavy chain (MHC) antibodies.

Where [6] appears, read: anticancer drug administered to CT26-transplanted mice, MRI.

For `CC(C)(CO)[C@@H](O)C(=O)NCCC(=O)O` [calcium pantothenate], the “expression of PAX7” value in data set [1] was “increased”. Further, the fat mass entry in data set [2] is “increased”. Also, in data set [2], the muscle mass entry is recorded as “increased”. Further, the muscle fiber size result in data set [3] is recorded as “well sparred”. The myoblast proliferation entry in data set [4] is reported as “not to promote myoblast proliferation”. The “differentiation of myoblast (microscope)” value in data set [5] is on record as “promoted differentiation of myoblast”. Further, the “differentiation promotion (Western blot myogenin and MHC)” value (“differentiation promotion” below) in data set [5] (single component at 5 μM) and in data set [5] (single component at 10 μM) was “increased especially” each time.

Turning to harmol, the myoblast proliferation result in data set [4] was “not to promote myoblast proliferation”. In addition, in data set [5], the “differentiation of myoblast (microscope)” value is recorded as “promoted differentiation of myoblast”. Also, the “differentiation promotion” value in data set [5] (single component at 5 μM) and in data set [5] (single component at 10 μM) was “increased especially” each time.

As to `O=c1[nH]cc(F)c(=O)[nH]1` [5-FU, 5-fluorouracil], in data set [2] (setting [6]), the fat decrease is given as 95% and the muscle amount decrease entry is “about 40%”.

Take `CN(C)CCOC(c1ccccc1)c1ccccc1.Cn1c(=O)c2[nH]c(Cl)nc2n(C)c1=O` [dimenhydrinate]: in data set [2], the fat mass entry is reported as “increased” and the muscle mass result is reported as “increased”. In addition, the muscle fiber size result in data set [3] is listed as “well sparred”. Further, the “differentiation promotion” value in data set [5] (single component at 5 μM) is “increased especially”.
